Target: T1, human mPGES-1 (Homo sapiens, UniProt O14684)
T1 construct: host or cells: microsomes
T1 sequence (O14684 1-152): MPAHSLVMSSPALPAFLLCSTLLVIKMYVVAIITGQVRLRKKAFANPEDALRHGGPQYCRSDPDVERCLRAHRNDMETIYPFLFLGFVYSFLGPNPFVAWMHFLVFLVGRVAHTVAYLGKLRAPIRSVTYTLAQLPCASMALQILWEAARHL
Assay: Microsomal prostaglandin E synthase biochemical assay
Settings: microsome preparation containing human mPGES-1; substrate PGH2 10.8 μM, GSH 2.5 mM, pH 6.8; PGE2 by HTRF; average of at least n=2
Procedure: Compounds were tested as inhibitors of microsomal prostaglandin E synthase activity in microsomal prostaglandin E synthase assays and whole cell assays. These assays measure prostaglandin E2 (PGE2) synthesis which is taken as a measure of prostaglandin E synthase activity. Microsomal prostaglandin E synthase biochemical assays used microsomal prostaglandin E synthase-1 in microsomal preparations. The source of the microsomes can be for example interleukin-1β-stimulated human A549 cells (which express human mPGES-1) or Sf9 cells transfected with plasmids encoding human mPGES-1 cDNA.
A solution of test compound was added to a diluted microsome preparation containing is human mPGES-1 and pre-incubated for 15 minutes in potassium phosphate buffer pH 6.8 with cofactor glutathione (GSH). Corresponding solutions without test compound were used as positive controls, and corresponding solutions without test compound and without microsomes were used as negative controls. The enzymatic reaction was then started by addition of the substrate PGH2 in an organic solution (dry acetonitrile).
The reaction was stopped after one minute by adding an acidic solution (pH 1.9) of ferric chloride and citrate (final concentrations 7 mM and 47 mM respectively), by which the PGH2 was sequestered (the PGH2 is reduced to mainly 12-hydroxy heptadecatrineoic acid (12-HHT) which is not detected by the subsequent PGE2 detection step). The resulting solution was then pH neutralized by addition of potassium phosphate buffer, prior to diluting an aliquot of the resulting solution in a weak potassium phosphate buffer (50 mM, pH 6.8) containing 0.2% BSA (w/v). […] The PGE2 formed was quantified by use of a commercial HTRF based kit (catalogue #62PG2PEC or #62P2APEC from Cisbio International). 100% activity was defined as the PGE2 production in positive controls subtracted by the PGE2 production in the negative controls. IC50 values were then determined using standard procedures.

Compound | IC50
NS(=O)(=O)c1ccccc1S(=O)(=O)NC(=O)c1ccc(C#CC2CCCC2)c(OCCCC(F)(F)F)c1 [Example 69, 4-(Cyclopentylethynyl)-N-(2-sulfamoylphenylsulfonyl)-3-(4,4,4-trifluorobutoxy)benzamide] | 11 nM
Cc1ccc(C#Cc2ccc(C(=O)NS(=O)(=O)c3ccccc3S(N)(=O)=O)cc2OCCC(F)F)cc1 [Example 70, 3-(3,3-Difluoropropoxy)-N-(2-sulfamoylphenylsulfonyl)-4-(p-tolylethynyl)benzamide] | 7.8 nM
CC(C)C#Cc1ccc(C(=O)NS(=O)(=O)c2ccccc2S(N)(=O)=O)cc1OCCC(F)F [Example 71, 3-(3,3-Difluoropropoxy)-4-(3-methylbut-1-ynyl)-N-(2-sulfamoylphenylsulfonyl)benzamide] | 31 nM
CC(C)C#Cc1ccc(C(=O)NS(=O)(=O)c2ccccc2S(N)(=O)=O)cc1OCCCF [Example 72, 3-(3-Fluoropropoxy)-4-(3-methylbut-1-ynyl)-N-(2-sulfamoylphenylsulfonyl)benzamide] | 43 nM
COc1cc(C(=O)NS(=O)(=O)c2ccccc2S(N)(=O)=O)ccc1C#Cc1ccccc1 [Example 73, 3-Methoxy-4-(phenylethynyl)-N-(2-sulfamoylphenylsulfonyl)benzamide] | 24 nM
COc1cc(C(=O)NS(=O)(=O)c2ccccc2S(N)(=O)=O)ccc1C#CC(C)C [Example 74, 3-Methoxy-4-(3-methylbut-1-ynyl)-N-(2-sulfamoylphenylsulfonyl)benzamide] | 190 nM
NS(=O)(=O)c1cc(O)ccc1S(=O)(=O)NC(=O)c1ccc(-c2cc3ccccc3o2)cc1 [Example 75, 4-Hydroxy-benzene-1,2-disulfonic acid 2-amide 1-(4-benzofuran-2-yl-benzoylamide)] | 26 nM
COc1ccc(S(=O)(=O)NC(=O)c2ccc(-c3cc4ccccc4o3)cc2)c(S(N)(=O)=O)c1 [Example 76, 4-methoxy-benzene-1,2-disulfonic acid 2-amide 1-(4-benzofuran-2-yl-benzoylamide)] | 530 nM
CC(C)(C)C#Cc1ccc(C(=O)NS(=O)(=O)c2ccc(O)cc2S(N)(=O)=O)cc1 [Example 77, 4-Hydroxy-benzene-1,2-disulfonic acid 2-amide 1-[4-(3,3-dimethyl-but-1-ynyl)-benzoylamide]] | 61 nM
COc1ccc(S(=O)(=O)NC(=O)c2ccc(C#CC(C)(C)C)cc2)c(S(N)(=O)=O)c1 [Example 78, 4-methoxy-benzene-1,2-disulfonic acid 2-amide 1-[4-(3,3-dimethyl-but-1-ynyl)-benzoylamide]] | 2200 nM

From US20100292279A1, “Bis-(Sulfonylamino) Derivatives in Therapy” (ASTRAZENECA AB, priority 2009, published 2010)
